US5798350A, “Dopamine receptor ligands” (Allelix Biopharmaceuticals, Inc., priority 1996, dated 1998)

Target: T1, human D4 receptor (D4.2 sub-type) (Homo sapiens, UniProt P21917, DEL265-296)
T1 construct: expressed in transfected cells; host or cells: HEK 298 (human embryonic kidney) cells, [sic]; homogenate of stably transfected cells
T1 sequence (P21917 with tags, fused parts or gaps DEL265-296): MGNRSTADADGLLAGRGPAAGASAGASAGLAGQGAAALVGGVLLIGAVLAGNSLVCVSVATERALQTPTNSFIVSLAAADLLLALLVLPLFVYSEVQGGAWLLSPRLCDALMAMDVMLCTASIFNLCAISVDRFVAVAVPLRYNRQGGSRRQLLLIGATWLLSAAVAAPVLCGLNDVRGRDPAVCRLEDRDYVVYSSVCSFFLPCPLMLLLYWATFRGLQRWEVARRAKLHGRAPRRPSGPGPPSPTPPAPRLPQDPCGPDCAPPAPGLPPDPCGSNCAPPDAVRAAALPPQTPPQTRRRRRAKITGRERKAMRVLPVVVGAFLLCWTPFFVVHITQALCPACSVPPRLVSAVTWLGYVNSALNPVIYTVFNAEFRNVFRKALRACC
Test: D4 receptor binding, displacement of 3H-spiperone
Conditions: for Ki: human D4 receptor, 3H-spiperone 0.25 nM
Procedure: The potency of the test compound to reduce ^3 H-spiperone binding directly correlated to its binding affinity for the receptor.
The cells were then centrifuged in a Sorval centrifuge for 10 minutes, 5000 rpm (GS3 rotor) and the pellets quickly frozen in liquid nitrogen and stored at -80° C. until used in binding assay. When used in the assay, cells were thawed on ice for 20 minutes and then 10 mL of incubation buffer (50 mM Tris, 1 mM EDTA, 4 mM MgCl2, 5 mM KCl, 1.5 mM CaCl2, 120 mM NaCl, pH7.4) was added. […] Concentration of receptor protein was determined using the Pierce BCA assay.
Total Spiperone Binding Assay
The tubes were vortexed and incubated at room temperature for 90 minutes. The binding reaction was stopped by filtering using a Brandell Cell Harvester. The samples were filtered under vacuum over glass fibre filters (Whatman GF/B) presoaked for 2 hours in 0.3% polyethyleneimine (PEI) in 50 mM Tris buffer (pH7.4). The filters were then washed 3 times with 5 mL ice cold 50 mM Tris buffer (pH7.4). Individual filter disks were put in scintillation vials (Biovials, Bechman). Ready Protein Plus liquid scintillant (5 mL, Beckman) was added and the vials counted by liquid scintillation spectrophotometry (Beckman LSC 6500) after equilibrating for three hours at room temperature to determine total binding (BT).
Non-Specific Binding Assay for D4
The tubes were vortexed and incubated at room temperature for 90 minutes at which time the binding reaction was stopped by filtering. The filters were washed and counted using the same procedure as in the total binding assay described above to give the non-specific binding value (NSB).
Displacement Binding Assay
The incubation was started by the addition to 12×75 mm polypropylene tubes 500 μl (50 μg protein) membrane homogenate to a solution of 400 μl incubation buffer, 100 μl (0.25 final conc.) ^3 H-spiperone (90Ci/mmol, Amersham, diluted in borosilicate glass vial to) and […] of test compound that was prepared from 1 mM stock dissolved in DMSO and stored at -20° C. in polypropylene cryogenic storage vials until dilution in incubation buffer in borosilicate glass vials. The tubes were vortexed and incubated at room temperature for 90 minutes at which time the binding reaction was stopped by filtering. The filters were washed and counted using the same procedure as in the total binding assay described above to give the displacement binding value (BD).
IC50 was determined from an inhibition response curve, logit-log plot of %B/BO vs concentration of test compound.
Ki was calculated by the Cheng and Prustoff transformation: […]
where [L] is the concentration of ^3 H-spiperone used in the assay and KD is the to dissociation constant of ^3 H-spiperone determined independently under the same binding conditions.

[1] = compared with corresponding 4-methyl piperazine compound

Ki [µM]	D4 affinity (compared with clozapine)	Structure (SMILES)	D4 affinity and selectivity (compared with clozapine)	D4 affinity and selectivity (compared with clozapine and the corresponding 4-methyl compound)	D4 affinity and selectivity [1]
0.0083		Clc1ccc2c(c1)C=C(N1CCN(Cc3ccc4c(c3)OCO4)CC1)c1ccccc1S2 [2-chloro-10-(4-piperonyl-1-piperazinyl)dibenzo[b,f]thiepine]			
0.0235		Clc1ccc2c(c1)Nc1ccccc1N=C2N1CCN(Cc2ccc3c(c2)OCO3)CC1 [3-chloro-11-(4-piperonyl-1-piperazinyl)-5H-dibenzo[b,e][1,4]diazepine]			
0.004	better D4 affinity than clozapine	Clc1ccc2c(c1)N=C(N1CCN(Cc3ccc4c(c3)OCO4)CC1)c1ccccc1O2 [8-chloro-11-(4-piperonyl)-1-piperazinyl)dibenz[b,f][1,4]oxazepine]	better D4 affinity and selectivity than clozapine	better than clozapine and the corresponding 4-methyl compound	better D4 affinity and selectivity than the corresponding 4-methyl piperazine compound
0.03		c1ccc2c(c1)N=C(N1CCN(Cc3ccc4c(c3)OCO4)CC1)c1ccccc1O2 [11-(4-piperonyl)-1-piperazinyl)-dibenz[b,f][1,4]oxazepine]			better D4 affinity and selectivity than the corresponding 4-methyl piperazine compound
